In patent US11331369B2, “Endoparasitic depsipeptides” (Zoetis Services LLC, priority 2017, dated 2022) one finds minimal effective concentration data, which are given here for 14 molecules.

For the assay, the system named is microfilariae of Dirofilaria immitis. The experiment in a line: Dirofilaria immitis, Microfilaria (DiMF) In vitro Assay. It is filed as cell-based. The following applies: 72 h, read-out: DiMF Minimum Effective Dose (MED), approximately 72 hours incubation, microfilariae assessed for survival or paralysis.

Structures are written as SMILES.

Consider `CC(C)C[C@H]1C(=O)O[C@H](Cc2ccc(Cn3ccnc3CF)cc2)C(=O)N(C)[C@@H](CC(C)C)C(=O)O[C@H](C)C(=O)N(C)[C@@H](CC(C)C)C(=O)O[C@H](Cc2ccccc2)C(=O)N(C)[C@@H](CC(C)C)C(=O)O[C@H](C)C(=O)N1C` [Example 8-14, (3S,6R,9S,12R,15S,18R,21S,24R)-6-benzyl-18-(4-((2-(fluoromethyl)-1H-imidazol-1-yl)methyl)benzyl)-3,9,15,21-tetraisobutyl-4,10,12,16,22,24-hexamethyl-1,7,13,19-tetraoxa-4,10,16,22-tetraazacyclotetracosan-2,5,8,11,14,17,20,23-octaone], for which the minimal effective concentration fell in the range of 0.01 to 0.1 µM. Regarding `CC(C)C[C@H]1C(=O)O[C@H](Cc2ccc(CN3CCSCC3)cc2)C(=O)N(C)[C@@H](CC(C)C)C(=O)O[C@H](C)C(=O)N(C)[C@@H](CC(C)C)C(=O)O[C@H](Cc2ccc(CN3CCSCC3)cc2)C(=O)N(C)[C@@H](CC(C)C)C(=O)O[C@H](C)C(=O)N1C` [Example 9-2, (3S,6R,9S,12R,15S,18R,21S,24R)-3,9,15,21-tetraisobutyl-4,6,10,16,18,22-hexamethyl-12,24-bis(4-(thiomorpholinomethyl)benzyl)-1,7,13,19-tetraoxa-4,10,16,22-tetraazacyclotetracosan-2,5,8,11,14,17,20,23-octaone], the minimal effective concentration fell in the range of 0.01 to 0.1 µM. Consider `CC(C)C[C@H]1C(=O)O[C@H](Cc2ccc(CN3CCC(F)(F)CC3)cc2)C(=O)N(C)[C@@H](CC(C)C)C(=O)O[C@H](C)C(=O)N(C)[C@@H](CC(C)C)C(=O)O[C@H](Cc2ccc(CN3CCC(F)(F)CC3)cc2)C(=O)N(C)[C@@H](CC(C)C)C(=O)O[C@H](C)C(=O)N1C` [Example 9-4, (3S,6R,9S,12R,15S,18R,21S,24R)-6,18-bis(4-((4,4-difluoropiperidin-1-yl)methyl)benzyl)-3,9,15,21-tetraisobutyl-4,10,12,16,22,24-hexamethyl-1,7,13,19-tetraoxa-4,10,16,22-tetraazacyclotetracosan-2,5,8,11,14,17,20,23-octaone], for which the minimal effective concentration was in the range of 0.01 to 0.1 µM.

Regarding `CC(C)C[C@H]1C(=O)O[C@H](Cc2ccc(N3CCCC(F)(F)C3)cc2)C(=O)N(C)[C@@H](CC(C)C)C(=O)O[C@H](C)C(=O)N(C)[C@@H](CC(C)C)C(=O)O[C@H](Cc2ccc(CN3CCCC(F)(F)C3)cc2)C(=O)N(C)[C@@H](CC(C)C)C(=O)O[C@H](C)C(=O)N1C` [Example 9-5, (3S,6R,9S,12R,15S,18R,21S,24R)-6-(4-(3,3-difluoropiperidin-1-yl)benzyl)-18-(4-((3,3-difluoropiperidin-1-yl)methyl)benzyl)-3,9,15,21-tetraisobutyl-4,10,12,16,22,24-hexamethyl-1,7,13,19-tetraoxa-4,10,16,22-tetraazacyclotetracosan-2,5,8,11,14,17,20,23-octaone], the minimal effective concentration fell in the range of 0.01 to 0.1 µM. Take `CC(C)C[C@H]1C(=O)O[C@H](Cc2ccc(Cn3cnnn3)cc2)C(=O)N(C)[C@@H](CC(C)C)C(=O)O[C@H](C)C(=O)N(C)[C@@H](CC(C)C)C(=O)O[C@H](Cc2ccc(Cn3cnnn3)cc2)C(=O)N(C)[C@@H](CC(C)C)C(=O)O[C@H](C)C(=O)N1C` [Example 9-18, (3S,6R,9S,12R,15S,18R,21S,24R)-6,18-bis(4-((1H-tetrazol-1-yl)methyl)benzyl)-3,9,15,21-tetraisobutyl-4,10,12,16,22,24-hexamethyl-1,7,13,19-tetraoxa-4,10,16,22-tetraazacyclotetracosan-2,5,8,11,14,17,20,23-octaone]: the minimal effective concentration is 0.01 to 0.1 µM.

As to `CC(C)C[C@H]1C(=O)O[C@H](Cc2ccc(Cn3ccc(Br)cc3=O)cc2)C(=O)N(C)[C@@H](CC(C)C)C(=O)O[C@H](C)C(=O)N(C)[C@@H](CC(C)C)C(=O)O[C@H](Cc2ccc(Cn3ccc(Br)cc3=O)cc2)C(=O)N(C)[C@@H](CC(C)C)C(=O)O[C@H](C)C(=O)N1C` [Example 9-20, (3S,6R,9S,12R,15S,18R,21S,24R)-6,18-bis(4-((4-bromo-2-oxopyridin-1 (2H)-yl)methyl)benzyl)-3,9,15,21-tetraisobutyl-4,10,12,16,22,24-hexamethyl-1,7,13,19-tetraoxa-4,10,16,22-tetraazacyclotetracosan-2,5,8,11,14,17,20,23-octaone], the minimal effective concentration lay within 0.01 to 0.1 µM.

For the molecule `CC(C)C[C@H]1C(=O)O[C@H](Cc2ccc(Cn3ccc(Cl)cc3=O)cc2)C(=O)N(C)[C@@H](CC(C)C)C(=O)O[C@H](C)C(=O)N(C)[C@@H](CC(C)C)C(=O)O[C@H](Cc2ccc(Cn3ccc(Cl)cc3=O)cc2)C(=O)N(C)[C@@H](CC(C)C)C(=O)O[C@H](C)C(=O)N1C` [Example 9-21, (3S,6R,9S,12R,15S,18R,21S,24R)-6,18-bis(4-((4-chloro-2-oxopyridin-1 (2H)-yl)methyl)benzyl)-3,9,15,21-tetraisobutyl-4,10,12,16,22,24-hexamethyl-1,7,13,19-tetraoxa-4,10,16,22-tetraazacyclotetracosan-2,5,8,11,14,17,20,23-octaone], the minimal effective concentration was in the range of 0.001 to 0.01 µM. Then `Cc1ccn(Cc2ccc(C[C@H]3OC(=O)[C@H](CC(C)C)N(C)C(=O)[C@@H](C)OC(=O)[C@H](CC(C)C)N(C)C(=O)[C@@H](Cc4ccc(Cn5ccc(C)cc5=O)cc4)OC(=O)[C@H](CC(C)C)N(C)C(=O)[C@@H](C)OC(=O)[C@H](CC(C)C)N(C)C3=O)cc2)c(=O)c1` [Example 9-27, (3S,6R,9S,12R,15S,18R,21S,24R)-3,9,15,21-tetraisobutyl-4,6,10,16,18,22-hexamethyl-12,24-bis(4-((4-methyl-2-oxopyridin-1 (2H)-yl)methyl)benzyl)-1,7,13,19-tetraoxa-4,10,16,22-tetraazacyclotetracosan-2,5,8,11,14,17,20,23-octaone], with 0.01 to 0.1 µM; and `CC(C)C[C@H]1C(=O)O[C@H](Cc2ccc(Cn3nnc4ccccc43)cc2)C(=O)N(C)[C@@H](CC(C)C)C(=O)O[C@H](C)C(=O)N(C)[C@@H](CC(C)C)C(=O)O[C@H](Cc2ccc(Cn3nnc4ccccc43)cc2)C(=O)N(C)[C@@H](CC(C)C)C(=O)O[C@H](C)C(=O)N1C` [Example 9-29, (3S,6R,9S,12R,15S,18R,21S,24R)-6,18-bis(4-((1H-benzo[d][1,2,3]triazol-1-yl)methyl)benzyl)-3,9,15,21-tetraisobutyl-4,10,12,16,22,24-hexamethyl-1,7,13,19-tetraoxa-4,10,16,22-tetraazacyclotetracosan-2,5,8,11,14,17,20,23-octaone], with 0.01 to 0.1 µM; and `CC(C)C[C@H]1C(=O)O[C@H](Cc2ccc(Cn3cccc3/C(N)=N/O)cc2)C(=O)N(C)[C@@H](CC(C)C)C(=O)O[C@H](C)C(=O)N(C)[C@@H](CC(C)C)C(=O)O[C@H](Cc2ccc(Cn3cccc3C(N)=NO)cc2)C(=O)N(C)[C@@H](CC(C)C)C(=O)O[C@H](C)C(=O)N1C` [Example 9-30, N′-hydroxy-1-[[4-[[(2R,5S,8R,11S,14R,17S,20R,23S)-14-[[4-[[2-[(Z)—N′-hydroxycarbamimidoyl]pyrrol-1-yl]methyl]phenyl]methyl]-5,11,17,23-tetraisobutyl-4,8,10,16,20,22-hexamethyl-3,6,9,12,15,18,21,24-octaoxo-1,7,13,19-tetraoxa-4,10,16,22-tetrazacyclotetracos-2-yl]methyl]phenyl]methyl]pyrrole-2-carboxamidine], with 0.001 to 0.01 µM. On to `CC(C)C[C@H]1C(=O)O[C@H](Cc2ccc(Cn3cc(-c4ccccc4)nn3)cc2)C(=O)N(C)[C@@H](CC(C)C)C(=O)O[C@H](C)C(=O)N(C)[C@@H](CC(C)C)C(=O)O[C@H](Cc2ccccc2)C(=O)N(C)[C@@H](CC(C)C)C(=O)O[C@H](C)C(=O)N1C` [Example 9-33, (3S,6R,9S,12R,15S,18R,21S,24R)-6-benzyl-3,9,15,21-tetraisobutyl-4,10,12,16,22,24-hexamethyl-18-(4-((4-phenyl-1H-1,2,3-triazol-1-yl)methyl)benzyl)-1,7,13,19-tetraoxa-4,10,16,22-tetraazacyclotetracosan-2,5,8,11,14,17,20,23-octaone], for which the minimal effective concentration was 0.01 to 0.1 µM. On to `CC(C)C[C@H]1C(=O)O[C@H](Cc2ccc(Cn3cc4ccccc4n3)cc2)C(=O)N(C)[C@@H](CC(C)C)C(=O)O[C@H](C)C(=O)N(C)[C@@H](CC(C)C)C(=O)O[C@H](Cc2ccc(Cn3cc4ccccc4n3)cc2)C(=O)N(C)[C@@H](CC(C)C)C(=O)O[C@H](C)C(=O)N1C` [Example 9-35, (3S,6R,9S,12R,15S,18R,21S,24R)-6,18-bis(4-((2H-indazol-2-yl)methyl)benzyl)-3,9,15,21-tetraisobutyl-4,10,12,16,22,24-hexamethyl-1,7,13,19-tetraoxa-4,10,16,22-tetraazacyclotetracosan-2,5,8,11,14,17,20,23-octaone], for which the minimal effective concentration lay within 0.01 to 0.1 µM.

Regarding `CC(C)C[C@H]1C(=O)O[C@H](Cc2ccc(Cn3cc4c(n3)CCC4)cc2)C(=O)N(C)[C@@H](CC(C)C)C(=O)O[C@H](C)C(=O)N(C)[C@@H](CC(C)C)C(=O)O[C@H](Cc2ccc(Cn3cc4c(n3)CCC4)cc2)C(=O)N(C)[C@@H](CC(C)C)C(=O)O[C@H](C)C(=O)N1C` [Example 9-42, (3S,6R,9S,12R,15S,18R,21S,24R)-6,18-bis[[4-(5,6-dihydro-4H-cyclopenta[c]pyrazol-2-ylmethyl)phenyl]methyl]-3,9,15,21-tetraisobutyl-4,10,12,16,22,24-hexamethyl-1,7,13,19-tetraoxa-4,10,16,22-tetrazacyclotetracosane-2,5,8,11,14,17,20,23-octaone], the minimal effective concentration fell in the range of 0.01 to 0.1 µM. As to `CC(C)C[C@H]1C(=O)O[C@H](Cc2ccc(Cn3ncc4cccnc43)cc2)C(=O)N(C)[C@@H](CC(C)C)C(=O)O[C@H](C)C(=O)N(C)[C@@H](CC(C)C)C(=O)O[C@H](Cc2ccc(Cn3ncc4cccnc43)cc2)C(=O)N(C)[C@@H](CC(C)C)C(=O)O[C@H](C)C(=O)N1C` [Example 9-49, (3S,6R,9S,12R,15S,18R,21S,24R)-6,18-bis(4-((1H-pyrazolo[3,4-b]pyridin-1-yl)methyl)benzyl)-3,9,15,21-tetraisobutyl-4,10,12,16,22,24-hexamethyl-1,7,13,19-tetraoxa-4,10,16,22-tetraazacyclotetracosan-2,5,8,11,14,17,20,23-octaone], the minimal effective concentration fell in the range of 0.001 to 0.01 µM.
